Reference: US11945862B2, “Compositions and methods for antibody production” (ImmunoGen, Inc., priority 2017, dated 2024)
Structures can show the parent of a compound that is named as a salt. Where two headings read alike, the source gives them in different places.

Experiments:
[1] = system: Humanized FOLR1 IgG1 antibody; assay: Antibody disulfide reduction by CHO cell lysate (RIPA buffer), thiol per antibody by Ellman's assay; type: biochemical
Experimental: Lysates of CHO cells (˜60 million cells lysed in 0.6 ml RIPA buffer and clarified by centrifugation) were added to each of these mixtures. The pH values of all samples were adjusted to 7. […] The samples were incubated with 200 microliter immobilized-Protein A beads (RepliGen) and rotated at ambient temperature for 3 hours, after which the supernatant was removed and the beads washed with PBS. The thiol content of the immobilized antibody was determined by the addition of 0.2 ml of PBS containing 0.5 mM DTNB (Ellman's reagent) to the beads, rotation for about 10 minutes, centrifugation, and absorbance measurement of the supernatant at 412 nm.
The pH values of all samples were adjusted to 7. The samples were incubated with 200 microliter immobilized-Protein A beads (RepliGen) and rotated at ambient temperature for 3 hours, after which the supernatant was removed and the beads washed with PBS. The thiol content of the immobilized antibody was determined by the addition of 0.2 ml of PBS containing 0.5 mM DTNB (Ellman's reagent) to the beads, rotation for about 10 minutes, centrifugation, and absorbance measurement of the supernatant at 412 nm.
To test the effect of L-cystine bis(t-butyl ester) (CDBE) on protecting antibody disulfide bonds from reduction by CHO lysate, humanized FOLR1 IgG1 antibody (2 mg) was incubated with CHO lysate in RIPA buffer (0.6 ml lysate of 60 million CHO cells in 0.6 ml RIPA buffer, clarified by centrifugation) without or with 0.5 or 1 mM CDBE. The samples were rotated at ambient temperature with 200 microliter immobilized-Protein A beads (RepliGen) for 2 hours, after which the supernatant was removed and the beads washed with PBS. The thiol content of the immobilized antibody was determined by the addition of 0.2 ml of PBS containing 0.5 mM DTNB (Ellman's reagent) to the beads, centrifugation, and absorbance measurement of the supernatant at 412 nm.
The samples were rotated at ambient temperature with 200 microliter immobilized-Protein A beads (RepliGen) for 2 hours, after which the supernatant was removed and the beads washed with PBS. The thiol content of the immobilized antibody was determined by the addition of 0.2 ml of PBS containing 0.5 mM DTNB (Ellman's reagent) to the beads, centrifugation, and absorbance measurement of the supernatant at 412 nm.

[2] = system: Calu3 human lung cancer cells; assay: Cell viability, microscopic observation and Cell Titer Glo ATP assay; type: cell-based; settings: 1 day
Experimental: The effect of incubating cells with anthraquinone-2-sulfonic acid (AQS) was tested using Calu3 human lung cancer cells. Effects on cell viability were assayed by microscopic observation of cells and by ATP-based viability assay using Cell Titer Glo reagent (Promega).

CHO cells = assay: Viability of CHO cells after 1 day treatment; settings: antibody-producing CHO cells, about two weeks continuous culture, control 63.8%
humanized N901 antibody = assay: Antibody disulfide reduction by CHO cell lysate (RIPA buffer), thiol/antibody by Ellman's assay; type: biochemical; settings: for decrease in antibody-disulfide reduction: versus control without agent
Experimental: For all of the examples described below, cell damage was simulated by multiple freeze-thaw cycles of cells, by addition of RIPA buffer (50 mM Tris-HCl, pH 7.4, 1% NP-40, 0.5% sodium deoxycholate, 0.1% sodium dodecylsulfate), or by using microfluidizer. This damaged cell supernatant or lysate was then incubated with a buffered solution containing antibody with or without the anti-reduction agent being tested, following which the extent of the antibody-disulfide reduction was measured using Ellman's assay for thiol (P. W. Riddles, R. L. Blakeley, and B. Zerner, Methods Enzymol., 91, 49-60, 1983) or by non-reducing SDS protein LabChip analysis. The total thiol level present in the mixture of damaged cell supernatant/lysate was measured initially.
The effect of 1,2-naphthoquinone-4-sulfonic acid (NQS) on antibody-disulfide reduction was studied by incubating 1,2-naphthoquinone-4-sulfonic acid at several concentrations with antibody and damaged CHO lysate. The damaged CHO cell lysate was generated by the addition of 0.5 ml RIPA buffer (50 mM Tris-HCl, pH 7.4, 1% NP-40, 0.5% sodium deoxycholate, 0.1% sodium dodecylsulfate) to 100 million CHO cells. The thiol concentration in CHO cell lysate was measured by Ellman's assay as 2.1 mM.
Each sample contained pre-mixed 0.5 ml RIPA buffer (50 mM Tris-HCl, pH 7.4, 1% NP-40, 0.5% sodium deoxycholate, 0.1% sodium dodecylsulfate) with 1 mg humanized N901 antibody, with or without 1,2-naphthoquinone-4-sulfonic acid (25 micromolar, or 50 micromolar, or 100 micromolar), which was added to a cell pellet of 100 million CHO cells, and the resuspended cells were incubated at ambient temperature for 30 minutes, following which the cell debris were pelleted by centrifugation (16,000 g, 5 min). The supernatant from each sample was added to 50 microliter immobilized-Protein A beads (RepliGen) and rotated at ambient temperature for 3 hours, after which the supernatant was removed and the beads washed with PBS.
The thiol content of the immobilized antibody was determined by the addition of 0.6 ml of PBS containing 0.5 mM DTNB (Ellman's reagent) to the beads, rotation for about 10 minutes, centrifugation, and absorbance measurement of supernatant at 412 nm.
The effect of anthraquinone-2-sulfonic acid (AQS) on antibody-disulfide reduction was studied during co-incubation of anthraquinone-2-sulfonic acid with antibody and damaged CHO lysate. Each sample contained pre-mixed 1 ml RIPA buffer (50 mM Tris-HCl, pH 7.4, 1% NP-40, 0.5% sodium deoxycholate, 0.1% sodium dodecylsulfate) with 1 mg humanized N901 antibody, with or without 0.2 mM anthraquinone-2-sulfonic acid (AQS), which was added to a cell pellet of 100 million CHO cells, and the resuspended cells were incubated at ambient temperature for 30 minutes, following which the cell debris were pelleted by centrifugation (16,000 g, 5 min). The thiol concentration in CHO cell lysate was 1 mM (Ellman's assay).
The supernatant from each sample was added to 50 microliter immobilized-Protein A beads (RepliGen) and rotated at ambient temperature for 3 hours, after which the supernatant was removed and the beads washed with PBS. The thiol content of the immobilized antibody was determined by the addition of 0.6 ml of PBS containing 0.5 mM DTNB (Ellman's reagent) to the beads, rotation for about 10 minutes, centrifugation, and absorbance measurement of supernatant at 412 nm.
In another experiment, 1 mg huN901 antibody was incubated with CHO lysate, with or without 0.4 mM anthraquinone-2-sulfonic acid for 4 hours. The mixture was then analyzed for thiol/antibody as above.
The thiol concentration in CHO cell lysate was 1 mM (Ellman's assay).
The supernatant from each sample was added to 50 microliter immobilized-Protein A beads (RepliGen) and rotated at ambient temperature for 3 hours, after which the supernatant was removed and the beads washed with PBS. […]

[3] = Reactivity of AQS with a model thiol, Ellman's assay of thiol groups; settings: 1 mM AQS with 1 mM cysteine ethyl ester, PBS, ambient temperature
Experimental: In a separate experiment, the reactivity of anthraquinone-2-sulfonic acid (AQS) with a model thiol (L-cysteine ethyl ester) at ambient temperature was investigated by incubating 1 mM AQS with 1 mM cysteine ethyl ester at ambient temperature in PBS, using Ellman's assay of thiol groups to measure the extent of reaction. At time points of 1 hour, 2 hours, 3 hours, and 4 hours, the percent decrease in thiol values for the 1 mM AQS with 1 mM cysteine ethyl ester mixture versus thiol in a 1 mM cysteine ethyl ester (No AQS) control were 2%, 8%, 12%, and 20%, respectively.

humanized FOLR1 IgG1 = assay: Antibody fragmentation in HCCF treated with 20% (v/v) microfluidized CHO cells, non-reducing SDS-Protein Lab Chip; type: biochemical; settings: 1 mM of each additive, 6 h; control 78% fragmentation
Experimental: The samples were quenched with 5 mM N-ethylmaleimide (NEM), purified using immobilized Protein A, and subjected to non-reducing SDS-Protein Lab Chip electrophoretic analysis.

humanized IgG4 = assay: IgG4 disulfide reduction by CHO cell lysate, DTNB thiol assay; type: biochemical; settings: 1 mM agent, 30% v/v CHO cell lysate, 4 hours, pH 7; control 7.7
Experimental: All samples were adjusted to pH 7 and incubated with 200 μl protein A beads for 4 hours while rotating at room temperature. After the incubation the supernatant was removed and beads washed three times with 10 ml PBS. To analyze the thiol content of the protein A-bound IgG4 antibody, the beads were incubated with a 0.5 mM DTNB solution for 5 min and the absorbance of the supernatant measured at 412 nm.

Humanized IgG2 antibody = assay: IgG2 disulfide reduction by CHO cell lysate, DTNB thiol assay; type: biochemical; settings: 1 mM agent, 40% v/v CHO cell lysate, 5 hours, pH 7; control 0.84
Experimental: Humanized IgG2 antibody (1 mg/ml; final concentration) was incubated with 40% v/v CHO cell lysate (˜40 million cells lysed with 0.4 ml RIPA buffer and debris removed by centrifugation) in a total volume of 1 ml. The control sample was adjusted to pH 7 and rotated at RT for 5 hours with 100 μl protein A beads. […] After the incubation time of 5 hours, the supernatant was removed and the beads were washed three times with 10 ml PBS before the thiol amount of the immobilized antibody was analyzed by adding 0.5 mM DTNB and measuring the absorbance at 412 nm.

physchem = settings: thermodynamic from solid
Excerpt: The pH was adjusted to pH 7.1 and the sample was rotated overnight at ambient temperature followed by centrifugation to remove undissolved L-cystine dihydrochloride.

[4] = Redox potential of antibody solution with media additive over a range of DTT concentrations; type: physicochemical; settings: 1 mM additive, DTT 0.34 μM to 170 μM, 37° C., 1 h
M9346A antibody [5] = type: biochemical
M9346A antibody [6] = type: biochemical; settings: 1 mM additive
Experimental: Antibody reduction was induced in a biological assay by adding cell lysate to purified monoclonal antibody. […]. Increasing amounts of CHO cell lysate were added to mimic different percentages of cell lysis, ranging from […]. Fresh NADPH was added to a concentration of 400 μM. The mixtures were incubated in a water bath at 37° C. for 1 h. Free thiols were alkylated by addition of 10% (v/v) of 50 mM N-ethyl-maleimide (NEM) solution. Samples were analyzed by non-reduced sodium dodecyl sulfate denaturing capillary electrophoresis (NR-CE-SDS).
To test the capacity for protection further, the stringency of the assay was increased. […].

With `O=C1c2ccccc2C(=O)c2cc(S(=O)(=O)O)ccc21` [AQS, anthraquinone-2-sulfonic acid] as the molecule, how does the thiol per antibody ([1]; 2 mM agent, 3 hours, pH 7, lysate of ~40 million cells, control 0.95) read?
Its thiol per antibody is “about 0.18 thiol per antibody”.

What about the “Cell Titer Glo luminescence relative to control cells” value ([2]; 0.25 mM) of the same molecule?
Its value is 100%.

What about the “Cell Titer Glo luminescence relative to control cells” value ([2]; 0.5 mM) of the same molecule?
The value was 85%.

And the “cytotoxic effects by microscopic observation” value ([2]; 0.25 and 0.5 mM)?
The value was “no visible cytotoxic effects”.

What about the “viability count using trypan blue” value (CHO cells; 0.25 mM) of the same molecule?
The value was 66.2%.

What about the “viability count using trypan blue” value (CHO cells; 0.5 mM) of the same molecule?
The value was 64.8%.

And the “viability count using trypan blue” value (CHO cells; 0.75 mM)?
Its value is 61.7%.

And the thiol/antibody (humanized N901 antibody; 0.2 mM agent, 3 hours, lysate thiol 1 mM, control 4.86)?
Its thiol/antibody is 2.46 thiol/antibody.

And the “decrease in antibody-disulfide reduction” value (humanized N901 antibody; 0.2 mM agent, 3 hours)?
Its value is 49%.

And the thiol/antibody (humanized N901 antibody; 0.4 mM agent alone, 4 hours, control 4.34)?
Its thiol/antibody is 1.65 thiol/antibody.

What about the “decrease in antibody-disulfide reduction” value (humanized N901 antibody; 0.4 mM agent, 4 hours) of the same molecule?
Its value is 62%.

What about the “percent decrease in thiol versus No AQS control” value ([3]; 1 hour) of the same molecule?
The value was 2%.

What about the “percent decrease in thiol versus No AQS control” value ([3]; 2 hours) of the same molecule?
Its value is 8%.

What about the “percent decrease in thiol versus No AQS control” value ([3]; 3 hours) of the same molecule?
The value was 12%.

And the “percent decrease in thiol versus No AQS control” value ([3]; 4 hours)?
Its value is 20%.

What about the “fragmentation compared with no additive control” value (humanized FOLR1 IgG1) of the same molecule?
Its value is “much lower fragmentations”.

Which “thiol groups per antibody” value (humanized IgG4) does the source give for `CC(C)(C)OC(=O)[C@@H](N)CSSC[C@H](N)C(=O)OC(C)(C)C` [CDBE, L-cystine bis(t-butyl ester)] here?
The value was “no reduced disulfides were detected”.

What about the “decrease in disulfide reduction compared to the control” value (shortened to “decrease in disulfide reduction”) ([1]; 0.25 mM agent, another experiment) of the same molecule?
Its value is “about 78%”.

What about the “decrease in disulfide reduction” value ([1]; 0.5 mM agent, 2 hours) of the same molecule?
The value was “about 93%”.

What about the thiol per antibody ([1]; 0.5 mM agent, 2 hours, control 2.26) of the same molecule?
The thiol per antibody was “about 0.16 thiol per antibody”.

And the “decrease in disulfide reduction” value ([1]; 1 mM agent, 2 hours)?
The value was roughly 96%.

And the thiol per antibody ([1]; 1 mM agent, 2 hours, control 2.26)?
Its thiol per antibody is roughly 0.10 thiol per antibody.

And the “decrease in disulfide reduction” value ([1]; 2 mM agent, another experiment)?
The value was roughly 98%.

What about the “reduced thiols per antibody” value (Humanized IgG2 antibody) of the same molecule?
The value was “near-zero reduction”.

Which solubility (physchem; water) does the source give for `CC(C)(C)OC(=O)[C@@H](N)CSSC[C@H](N)C(=O)OC(C)(C)C` [L-cystine bis(t-butyl ester) dihydrochloride] here?
Its solubility is no less than 500 mM.

Which results are given for `Cl.Cl.N[C@@H](CSSC[C@H](N)C(=O)O)C(=O)O` [L-cystine dihydrochloride, reference compound]?
thiol per antibody ([1]; L-cystine derived from saturated L-cystine solution, 3 hours, pH 7, control 1.96): about 0.74 thiol per antibody; solubility (physchem; pH 7.1, aqueous buffer): < 5 mM

What does the source list for `O=S(=O)([O-])[O-].[Cu+2]` [copper sulfate]?
modulation of redox potential [4]: constant redox potential across all DTT concentrations; intact antibody (M9346A antibody [5]): 100%; protection at increased assay stringency (M9346A antibody [6]; conditions where control without additive was 100% fragmented): protective of disulfide reduction

What does the source list for `N[C@@H](CS)C(=O)O` [cysteine, reference compound]?
modulation of redox potential [4]: constant redox potential at low concentrations of DTT, followed by a slow decrease at higher DTT concentrations; intact antibody (M9346A antibody [6]; lysate mimicking 120% cell lysis, 400 μM NADPH, 37° C., 1 h, control 40%): ~70%

Which results are given for `[O]=[Cr](=[O])([O-])[O][Cr](=[O])(=[O])[O-]` [dichromate, reference compound]?
modulation of redox potential [4]: constant redox potential across all DTT concentrations; intact antibody (M9346A antibody [5]; 1 mM additive, 100 μM DTT, 37° C., 1 h, control 80%): 100%
